These results are taken from patent US20060229276A1, “Use of glycosoaminoglycans for the prevention and treatment of sepsis” (priority 2004, published 2006).

“Also recorded” adds a separate entry of the source. Where two headings read alike, the source gives them in different places.

The test system of one data set is S. aureus strain K2. Nature of the data set: S. aureus strain K2-induced sepsis in mice (survival, weight, clinical appearance). The note with it: for survival versus PBS control: 20 μg/mouse s.c. The protocol:
FIGS. 5A-B show the dose effect of dermatan sulfate on the survival of mice infected with a […] dose S. aureus. S. aureus K2 was grown to log phase and set via a nephelometer to an LD60-80% (30 million cfu per mouse in FIG. 5A; 35 million cfu per mouse in FIG. 5B). Balb/c mice were infected intravenously (0.5 ml) on day zero. Animals were then inoculated subcutaneously with low molecular weight heparin or dermatan sulfate (20 μg/mouse) at two hour and subsequently every twenty-four hours. Control group mice were injected with PBS. Clinical appearance and weight was recorded daily.
FIGS. 6A-B show the dose effect of dermatan sulfate (DS) on mice infected with S. aureus strain K2. S. aureus strain K2 was grown to log phase and set via a nephelometer to a lethal concentration of 40 million cfu per mouse. Balb/c mice were infected intravenously with 40 m cfu's of S. aureus K2. Treatment groups were injected subcutaneously with increasing doses of dermatan sulfate (0.1 to 12.5 mg/kg body weight or 2 to 250 μg of dermatan sulfate) at two hour and subsequently every twenty-four hours. Control group mice were injected subcutaneously with PBS. Clinical appearance and weight were recorded daily. […] In FIG. 6A, n=15 in PBS and n=10 for all doses of dermatan sulfate and in FIG. 6B, n=10 for both the doses of dermatan sulfate.
FIGS. 7A-B show the dose effect of dermatan sulfate (DS) on mice infected with S. aureus strain K2. S. aureus strain K2 was grown to log phase and set via a nephelometer to a lethal concentration of 40 million cfu per mouse. Balb/c mice were infected intravenously with 40 m cfu's of S. aureus K2 on day 0. Treatment groups were injected subcutaneously with increasing doses of dermatan sulfate (0.025 to 25 mg/kg body weight or 0.5 to 500 μg of dermatan sulfate) at two hour and subsequently every twenty-four hours. Control group mice were injected subcutaneously with PBS. Clinical appearance and weight were recorded daily.

Data set [1] can be described thus: Toxicity of high dose dermatan sulfate in non infected control mice. It is filed as in vivo. The settings on record: 500 μg/day. The method, then:
A very high dose of approximately 25 mg/kg body weight is detrimental to the infected mice after the onset of sepsis (FIG. 7A). […] But, a high dose of dermatan sulfate was non-toxic to non infected control mice treated with 500 μg/day of dermatan sulfate.

The test system of data set [2] is extrinsic pathway of coagulation. Nature of the data set: Prothrombin time in plasma of S. aureus K2-infected mice. The class given is in vivo, Balb/c mice. The settings on record: 48 hours after infection. The protocol: (§1) FIGS. 8A-B show the effect of dermatan sulfate (DS) on the prothrombin time (FIG. 8A) and partial thromboplastin time (FIG. 8B) of mice treated with dermatan sulfate after the onset of S.aureus-induced sepsis. […] Control group mice were injected subcutaneously with PBS or dermatan sulfate (50 or 500 μg dermatan sulfate per mouse per day). Mice were bled at 48 hours after infection via tail vein. Blood collected in 0.12 M sodium citrate in a 9:1 ratio of blood to citrate. Samples were centrifuged and plasma collected and frozen at −20° C. until use. Plasmas were diluted 1:3 in Owrens buffer for analysis. Prothrombin time (PT) and partial thromboplastin time (PTT) were determined utilizing an XM coagulometer according to manufacturer's instructions.
To ascertain the physiological pathway that is modulated by dermatan sulfate, coagulation profiles of mice treated with low and high concentrations of the compound in the context of S. aureus-induced sepsis was assessed. The extrinsic pathway of coagulation was first evaluated by measuring the prothrombin time (PT) in the plasma of mice forty eight hours after infection with S. aureus and treatment with dermatan sulfate. […] Prothrombin time (PT) was determined utilizing an XM coagulometer according to the manufacturer's instructions.

Another data set concerns Fibrinogen. Nature of the data set: Fibrinogen levels in plasma of S. aureus K2-infected mice. The class given is in vivo, Balb/c mice. The note with it: 50-500 μg/day s.c.; 48 hours after infection. The protocol:
(§2) Control group mice were injected subcutaneously with PBS or dermatan sulfate (50 or 500 μg dermatan sulfate per mouse per day). Mice were bled at 48 hours after infection via tail vein. Blood collected in 0.12 M sodium citrate in a 9:1 ratio of blood to citrate. Samples were centrifuged and plasma collected and frozen at −20° C. until use. Plasmas were diluted 1:9 in Owrens buffer for analysis. Fibrinogen levels were determined utilizing control standards as measured by an XM coagulometer according to manufacturer's instructions.
Plasma samples from S.aureus infected mice were prepared as described in example 7. Fibrinogen levels were determined utilizing control standards using an XM coagulometer according to manufacturer's instructions.

In data set [3] the test system is intrinsic pathway of coagulation. As to the kind of experiment: Partial thromboplastin time in plasma of S. aureus K2-infected mice. The class given is in vivo, Balb/c mice. The settings on record: 48 hours after infection. The method, then:
as §1
The effect of dermatan sulfate on the intrinsic pathway of coagulation was determined by measuring the active partial thromboplastin time. Plasma samples from S.aureus infected mice was prepared as described in example 7. Partial thromboplastin time (PTT) was determined utilizing an XM coagulometer according to the manufacturer's instructions.

The next data set deals with protein C. As to the kind of experiment: Protein C levels in plasma of S. aureus K2-infected mice. It is filed as in vivo, Balb/c mice. The settings on record: 48 hours. The protocol: as §2, with “Balb/c mice were infected intravenously with 40 million cfu's of S. aureus K2 on day zero. […] Control” for “Control”, “Protein C” for “Fibrinogen”, “as percent levels based on” for “determined utilizing control”, “and its ability to prolong partial thromboplastin time. Clotting assay was evaluated using” for “as measured by”
Plasma samples from S.aureus infected mice were prepared as described in Example 7. Protein C in the plasma was determined as percent levels based on standards and their ability to prolong partial thromboplastin time. Clotting assay was evaluated using an XM coagulometer according to manufacturer's instructions.

For data set [4] the following is noted: in vivo, cited from earlier work.
In another data set the test system is S. aureus. The class given is in vivo, mice. The note with it: 100 or 50 μg per mouse. The protocol: The therapeutic index of low molecular weight heparin was also evaluated by using several-fold concentrations in excess of the clinical dose (1 mg/kg or 20 μg/mouse). […] These adverse effects included hematuria, subcutaneous hematomas, and bleeding at the site of injection. The majority of the mice that died in the low molecular weight heparin group were documented with at least one episode of bleeding. […] Insight into the actual cause of bleeding can be gained by examining the coagulation profiles.

The next data set concerns S. aureus strain CYL574. As to the kind of experiment: S. aureus strain CYL574-induced septic death in mice (survival). The class given is in vivo, Balb/c mice. The protocol:
Mice in control group were injected intraperitoneally with PBS.
Experiments evaluating the effects of low molecular weight heparin in preventing mortality and/or prolonging survival were conducted in an animal model of S. aureus-induced septic death.

Where [5] appears, read: 30 million cfu K2, FIG. 5A, n=15.
Setting [6] is: 35 million cfu K2, FIG. 5B, n=20.
Where [7] appears, read: infected mice treated with 50 or 500 μg per mouse s.c.

For the substance chondroitin sulfate A, the “effect of continued daily high doses in infected mice” value in the data set on S. aureus strain K2 (s.c., continued daily high doses) is given as “detrimental”. In addition, the “survival as compared to infected mice treated with PBS” value in the data set with S. aureus strain K2 (s.c., greater than 10 mg/kg body weight or greater than 200 μg per mouse, FIG. 4) was “prolonged survival”. Besides, in the data set with S. aureus strain K2 (s.c., very high doses >100 mg/kg body weight, first days after onset of sepsis), the survival entry was “augmented survival”.

Consider dermatan sulfate, for which the “toxicity in non infected control mice” value in data set [1] is reported as “non-toxic”. Further, the figures for the “survival versus PBS control” value in the data set on S. aureus strain K2 (setting [5]) and in the data set on S. aureus strain K2 (setting [6]) were “substantial survival rate” and “dramatic survival rate”, respectively. The clinical state result in the data set on S. aureus strain K2 (500 μg/day s.c., first twenty four to forty eight hours) is listed as “did clinically well”. Besides, the “effect of very high dose on infected mice (survival)” value with S. aureus strain K2 (approximately 25 mg/kg body weight, 500 μg/day s.c., FIG. 7A) is recorded as “detrimental; also recorded: poor survival”. Besides, the “weight of surviving animals” value in the data set on S. aureus strain K2 (higher-survival dose versus lower doses, FIG. 6B) is “substantially lost more weight”. Further, the “protection, high versus lower doses” value with S. aureus strain K2 (s.c., high doses >1 mg/Kg versus <1 mg/Kg, FIGS. 6A-7B) was “more protective than lower doses”. Moreover, the “survival rates with tapered dose” value in the data set on S. aureus strain K2 (tapering from 16 mg/kg, halved every day to approximately 0.025 mg/Kg on day 13, FIG. 7B) is “optimal survival rates”. For the same substance, the “prothrombin time as compared to infected PBS treated mice” value in data set [2] (500 μg/day (high dose) s.c.) is on record as “increase the prothrombin time; also recorded: significant increase in prothrombin time”. Further, the prothrombin time result in [2] (setting [7]) is “contracted prothrombin times”. In addition, the “fibrinogen levels as compared to infected PBS treated mice” value in the data set on Fibrinogen was “did not exhibit any significant difference”. In addition, the “partial thromboplastin time as compared to infected PBS treated mice” value in data set [3] (50 μg/day (low dose) s.c.) is on record as “decrease the partial throboplastin time; also recorded: slight decrease”. The “partial thromboplastin time as compared to PBS treated infected mice” value in data set [3] (500 μg/day s.c.) is given as “significantly prolonged”. Also, the partial thromboplastin time entry in data set [3] (setting [7]) is “prolonged partial thromboplastin time”. Further, the “protein C levels” value is “decrease protein C levels; also recorded: broad range of protein c levels that were higher and lower” with protein C (50 μg/day s.c. (low doses, <10 mg/Kg)); “increase plasma C levels; also recorded: dramatically increase protein C levels” in the data set with protein C (500 μg/day s.c. (high levels, >20 mg/kg), 20 mg/kg).

Regarding low molecular weight heparin, the results for the “survival versus PBS control” value with S. aureus strain K2 (setting [5]) and with S. aureus strain K2 (setting [6]) were “higher rate a survival than the control group” and “higher survival rate than the PBS-treated mice”, respectively. In addition, the survival rate in the data set with S. aureus strain K2 (1 mg/kg i.p., 72 hr, supra-lethal dose K2, PBS control 20%) worked out at 70%; in the data set on S. aureus strain K2 (1 mg/kg i.p., 96 hr, supra-lethal dose K2, PBS control 0%, p=0.01), 60%; with S. aureus strain K2 (5 mg/kg i.p., 96 hours after infection, PBS control 0%) it was 22.2%; in the data set on S. aureus strain CYL574 (high dose 5 mg/kg i.p., after infection, p=0.0017 versus control) it was 92.8%; in the data set with S. aureus strain CYL574 (prophylaxis dose 1 mg/kg i.p., 14 days after infection, PBS control 33.3%) it was 66.7%. Moreover, the “survival, low versus high doses” value with S. aureus strain K2 (s.c., approximately <0.5 mg/kg per day compared with >1 mg/kg per day, FIG. 3) was “increased survival”. Moreover, the plasma half-life in [4] (iv) is 2 to 4 h; in data set [4] (sc), 3 to 6 h. Also, the “plasma half-life relative to unfractionated heparin” value in data set [4] was 2-4 times. Besides, the “survival rates as compared to control mice treated with PBS” value in the data set on S. aureus (data not shown) is “lower survival rates”. Further, in the data set with S. aureus (high doses, infected mice), the “adverse effects (bleeding)” value was “signs of bleeding after only 48 hr”.
